Assay results from BindingDB's records for doi:10.1016/s0968-0896(99)00306-5 (University of Bologna, 2000).

Tests used:
Acetylcholinesterase = Acetylcholinesterase (Homo sapiens, UniProt P22303); experiment: Cholinesterase Inhibition Assay
Protocol: (§1) The cholinesterase assays were performed using colorimetric method reported by Ellman. The absorbance changes at 412 nm were recorded for 5 min with a Jasco Uvidec-610 double beam Spectrophotometer. The reaction rates were compared and the percent inhibition due to the presence of test compounds was calculated. Inhibition curve was obtained for each compound.

Cholinesterase = Cholinesterase (Homo sapiens, UniProt P06276); experiment: Cholinesterase Inhibition Assay; details: pH 8; 37 °C
Protocol: as §1

Sequence of Cholinesterase (P06276 whole entry): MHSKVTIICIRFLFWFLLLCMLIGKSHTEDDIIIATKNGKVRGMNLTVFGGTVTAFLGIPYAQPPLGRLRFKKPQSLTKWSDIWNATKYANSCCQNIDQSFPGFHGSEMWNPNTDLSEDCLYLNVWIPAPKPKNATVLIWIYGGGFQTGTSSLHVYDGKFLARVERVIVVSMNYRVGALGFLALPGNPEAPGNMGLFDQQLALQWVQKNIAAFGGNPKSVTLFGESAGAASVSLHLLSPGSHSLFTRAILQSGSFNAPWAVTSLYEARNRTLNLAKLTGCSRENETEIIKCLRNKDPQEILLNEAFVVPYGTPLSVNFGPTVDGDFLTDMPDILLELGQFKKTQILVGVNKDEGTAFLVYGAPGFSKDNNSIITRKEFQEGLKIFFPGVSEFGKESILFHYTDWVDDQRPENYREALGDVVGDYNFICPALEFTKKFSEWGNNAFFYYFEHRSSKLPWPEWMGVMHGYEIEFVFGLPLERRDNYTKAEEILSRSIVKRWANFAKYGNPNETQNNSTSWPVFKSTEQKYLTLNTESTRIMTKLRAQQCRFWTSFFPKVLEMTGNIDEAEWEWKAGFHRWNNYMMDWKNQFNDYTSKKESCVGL
Sequence of Acetylcholinesterase (P22303 whole entry): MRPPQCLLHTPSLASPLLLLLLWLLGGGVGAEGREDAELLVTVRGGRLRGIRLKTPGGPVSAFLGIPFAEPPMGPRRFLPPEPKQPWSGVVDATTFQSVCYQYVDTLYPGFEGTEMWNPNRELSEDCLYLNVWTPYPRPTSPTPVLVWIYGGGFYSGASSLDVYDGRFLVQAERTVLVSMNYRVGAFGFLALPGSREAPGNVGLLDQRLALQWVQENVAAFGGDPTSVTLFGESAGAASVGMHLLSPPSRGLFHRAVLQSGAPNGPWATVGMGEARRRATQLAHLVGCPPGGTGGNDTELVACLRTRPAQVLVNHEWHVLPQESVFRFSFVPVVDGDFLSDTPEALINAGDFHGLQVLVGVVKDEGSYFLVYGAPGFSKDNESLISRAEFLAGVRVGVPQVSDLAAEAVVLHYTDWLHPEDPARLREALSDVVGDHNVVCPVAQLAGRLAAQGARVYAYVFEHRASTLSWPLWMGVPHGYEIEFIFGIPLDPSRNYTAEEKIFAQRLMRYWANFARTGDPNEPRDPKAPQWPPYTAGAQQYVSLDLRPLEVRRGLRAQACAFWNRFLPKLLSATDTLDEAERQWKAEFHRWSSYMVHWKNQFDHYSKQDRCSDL

Row | SMILES | IC50 (Acetylcholinesterase) [µM] | IC50 (Cholinesterase) [µM] | Ki (Acetylcholinesterase) [µM]
1 | COc1cccc2c1Cc1c-2nc2ccccc2c1N [9-methoxy-10H-indeno[1,2-b]quinolin-11-amine] | 1.6 | 3 | 
2 | Cc1ccc2c(c1)-c1nc3ccccc3c(N)c1C2 [7-methyl-10H-indeno[1,2-b]quinolin-11-amine] | 4.6 |  | 
3 | Nc1c2c(nc3cc([N+](=O)[O-])ccc13)-c1ccccc1C2 [3-nitro-10H-indeno[1,2-b]quinolin-11-amine] | 67.5 |  | 
4 | Nc1c2c(nc3ccccc13)-c1ccccc1C2 |  | 4.7 | 0.21
5 | Nc1c2c(nc3cc(Cl)ccc13)-c1ccccc1C2 [3-chloro-10H-indeno[1,2-b]quinolin-11-amine] | 6.5 |  | 
6 | Nc1c2c(nc3ccc([N+](=O)[O-])cc13)-c1ccccc1C2 [2-nitro-10H-indeno[1,2-b]quinolin-11-amine] | > 100 |  | 
7 | c1ccc(CNc2c3c(nc4ccccc24)-c2ccccc2C3)cc1 [N-benzyl-10H-indeno[1,2-b]quinolin-11-amine] | 7.1 | 0.5 | 7.5
8 | Nc1ccc2c(N)c3c(nc2c1)-c1ccccc1C3 [11H-Indeno-[1,2-b]-quinolin-7,10-diamine] | 29 |  | 
9 | COc1ccc2c(c1)Cc1c-2nc2ccccc2c1N [8-methoxy-10H-indeno[1,2-b]quinolin-11-amine] | 6.5 |  | 
10 | Nc1c2c(nc3cc(F)ccc13)-c1ccccc1C2 [3-fluoro-10H-indeno[1,2-b]quinolin-11-amine] | 1.2 | 5.7 | 
11 | CCCCCCCNc1c2c(nc3ccccc13)-c1ccccc1C2 [N-Heptyl-N-11H-indeno-[1,2-b]-quinolin-10-yl)-amine] | 4.3 |  | 
12 | Nc1c2c(nc3ccccc13)-c1ccc(Cl)cc1C2 [8-chloro-10H-indeno[1,2-b]quinolin-11-amine] | 5.4 |  | 
13 | Nc1c2c(nc3ccccc13)-c1ccc(F)cc1C2 [8-fluoro-10H-indeno[1,2-b]quinolin-11-amine] | 0.43 | 7.1 | 
14 | Nc1ccc2nc3c(c(N)c2c1)Cc1ccccc1-3 [11H-Indeno-[1,2-b]-quinolin-8,10-diamine] | 5.9 |  | 
15 | Cc1cccc2c1Cc1c-2nc2ccccc2c1N [9-methyl-10H-indeno[1,2-b]quinolin-11-amine] | 3.9 |  | 
16 | COc1ccc2c(c1)-c1nc3ccccc3c(N)c1C2 [7-methoxy-10H-indeno[1,2-b]quinolin-11-amine] | 4.3 |  | 
17 | CNc1c2c(nc3ccccc13)-c1ccccc1C2 [N-methyl-10H-indeno[1,2-b]quinolin-11-amine] | 1.3 | 1.6 | 
